The subject of the assay is T1, MzmL.
T1 construct: full-length ORF (304 residues, predicted 16-residue signal peptide MKKLIILLITLSLFVA included in the clone), N-terminal His6 tag kept (pET-28a), E. coli BL21(DE3), Ni-NTA, ~35 kDa
The assay can be described thus: pH-indicator (bromothymol blue) assay of lactone hydrolysis, OD630, Michaelis-Menten fit. Particulars: 2.5 mM MOPS pH 7.1; 25°C in methods, 28°C in table footnote; 5 nM enzyme; read-out: Km (mM)/Mean ± SD. Type of assay: biochemical, Mesoflavibacter zeaxanthinifaciens. The source says: pH-indicator (bromothymol blue) assay of lactone hydrolysis, OD630, Michaelis-Menten fit on MzmL
With `CCCC(=O)CC(=O)N[C@H]1CCOC1=O` [3-oxo-C6-HSL], the Km was determined as 0.08 ± 0.06 mM.

In the case of `CCCCCC(=O)CC(=O)N[C@H]1CCOC1=O` [3-oxo-C8-HSL], the Km came out at 0.46 ± 0.21 mM.

For the compound `CCCCCCCC(=O)CC(=O)N[C@H]1CCOC1=O` [3-oxo-C10-HSL], the Km was 0.12 ± 0.03 mM.

For the compound `CCCCCC(=O)N[C@H]1CCOC1=O` [C6-HSL], the Km turned out to be 0.39 ± 0.11 mM.

In the case of `CCCCCCCCCC(=O)N[C@H]1CCOC1=O` [C10-HSL], the Km stood at 0.04 ± 0.01 mM.
